Measured values reported in patent publication US12195427B2, “MASP-2 inhibitors and methods of use” (priority 2018, dated 2025).
Where a name gives a salt, the structure may show the parent alone.

Target: MASP-2 CCP2-SP (Homo sapiens (Human), UniProt O00187)
Assay: MASP-2 co-crystallization, X-ray crystallography and structure analysis (H-bonds, van der Waals contacts);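 as to Ligand-pharmacophore element distance, pharmacophore element C2: distance from averaged pharmacophore element to bound ligand; missing value means element absent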;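 as to Ligand-pharmacophore element distance, pharmacophore element C3: distance from averaged pharmacophore element to bound ligand; missing value means element absent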;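 as to Ligand-pharmacophore element distance, pharmacophore element C4: distance from averaged pharmacophore element to bound ligand; missing value means element absent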;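 as to Ligand-pharmacophore element distance, pharmacophore element C5: distance from averaged pharmacophore element to bound ligand; missing value means element absent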
Parameters: van der Waals contact distance, MASP-2 HIS 483 atom CD2 / van der Waals contact distance, MASP-2 HIS 483 atom NE2 / van der Waals contact distance, SER 654 C to compound atom / van der Waals contact distance, SER 654 O to compound atom / van der Waals contact distance, TRP 655 C to compound atom / van der Waals contact distance, MASP-2 GLY 528 atom CA / van der Waals contact distance TRP 655 atom CZ3 / van der Waals contact distance TRP 655 atom N / van der Waals contact distance TRP 655 atom CE3 / van der Waals contact distance GLY 656 atom C / van der Waals contact distance GLY 656 atom CA / van der Waals contact distance GLY 656 atom O / van der Waals contact distance, MASP-2 TYR 607 atom CD1 / van der Waals contact distance, MASP-2 PRO 606 atom O / d(C3,CA1) / d(CA1,N1)2 / d(H4,O1) / d(H4,O2) / d(O1,O2) / d(CA1,O2) / d(CA6,O1) / d(CA6,O2) / d(CA1,C5) / d(O2,H3) / d(N2,C2) / d(CA5,N2) / d(N2,C4) / d(N2,C6) / d(N2,CA3) / d(N2,O3) / d(O4,H2): unit not given beside the values
Details: for Ligand-pharmacophore element distance, pharmacophore element C2 / Ligand-pharmacophore element distance, pharmacophore element C3 / Ligand-pharmacophore element distance, pharmacophore element C4 / Ligand-pharmacophore element distance, pharmacophore element C5 / Ligand-pharmacophore element distance, pharmacophore element C6 / Ligand-pharmacophore element distance, pharmacophore element C7 / Ligand-pharmacophore element distance, pharmacophore element CA1 / Ligand-pharmacophore element distance, pharmacophore element CA2 / Ligand-pharmacophore element distance, pharmacophore element CA3 / Ligand-pharmacophore element distance, pharmacophore element CA4 / Ligand-pharmacophore element distance, pharmacophore element CA5 / Ligand-pharmacophore element distance, pharmacophore element CA6: Table A4-1; for H-bond distance to MASP-2 GLY 656 atom N: GLY 656 N; for H-bond distance to MASP-2 SER 654 atom O: SER 654 O; for H-bond distance to MASP-2 SER 657 atom O: SER 657 O; for van der Waals contact distance, VAL 653 CG1 to compound atom: Table A2-11
Procedure, shortened: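 Inhibitor complexes were obtained by soaking crystals of E. coli-derived human MASP-2 CCP2-SP. Synchrotron diffraction at 1.0 wavelength, molecular replacement and partial refinement gave the models; one pose per ligand was chosen for contact analysis.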

[1] = Table A5-1 pharmacophore: distance between elements, S2/S1 region
[2] = Table A5-2 pharmacophore distance, S3/S4 region
[3] = Table A7-1, between pharmacophore elements of the bound compound
[4] = Table A7-2, between pharmacophore elements of the bound compound
[5] = Table A8-6, nearest protein atom in cell to the left

Sequence of MASP-2 CCP2-SP (O00187 445-686): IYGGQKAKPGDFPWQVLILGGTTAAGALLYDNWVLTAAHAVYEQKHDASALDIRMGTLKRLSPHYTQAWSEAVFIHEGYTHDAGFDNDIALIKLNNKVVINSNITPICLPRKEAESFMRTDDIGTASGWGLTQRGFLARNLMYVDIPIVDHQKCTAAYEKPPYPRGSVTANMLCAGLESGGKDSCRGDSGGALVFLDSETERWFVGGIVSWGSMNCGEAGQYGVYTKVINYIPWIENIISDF
Sequence of MASP-2 CCP2-SP (O00187 364-432 partner): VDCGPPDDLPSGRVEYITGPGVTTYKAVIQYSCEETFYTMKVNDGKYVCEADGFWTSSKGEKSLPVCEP

## Cc1nc(N)ccc1CNC(=O)[C@H](C)NC(=O)[C@H]1C[C@H](Cc2cccc(Cl)c2)CN1.Cl.Cl [1328_1]
  Ligand-pharmacophore element distance, pharmacophore element C2: 0
  Ligand-pharmacophore element distance, pharmacophore element C3: 0.4
  Ligand-pharmacophore element distance, pharmacophore element C4: 0.76
  Ligand-pharmacophore element distance, pharmacophore element C5: 0
  Ligand-pharmacophore element distance, pharmacophore element C6: 0
  Ligand-pharmacophore element distance, pharmacophore element C7: 0
  Ligand-pharmacophore element distance, pharmacophore element CA1: 0.49
  Ligand-pharmacophore element distance, pharmacophore element CA2: 0.5
  Ligand-pharmacophore element distance, pharmacophore element CA3: 0
  Ligand-pharmacophore element distance, pharmacophore element CA4: 0
  Ligand-pharmacophore element distance, pharmacophore element CA5: 0
  Ligand-pharmacophore element distance, pharmacophore element CA6: 0
[1]
  d(C3,CA1): 2.85
  d(CA1,N1)2: 1.37
  d(CA1,O1): 4.24
  d(CA1,O2): 3.54
  d(H4,O1): 4.21
  d(H4,O2): 3.54
  d(O1,O2): 3.13
[2]
  d(N2,C4): 8.09
  d(N2,C4)4: 8.09
  d(N2,CA2): 5.88
  d(O2,H3): 4.20
  d(O2,N2): 2.79
Table A6-1 pharmacophore angle
  a(C3, CA1, O1): 150.62
  a(CA1, O1, O2): 101.20
  a(O1, O2, H4): 133.34
Table A6-1 pharmacophore angle, Methyl-amino-pyridine compounds
  a(N1, CA1, O1) b): 175.41
Table A6-2 pharmacophore angle
  a(O1, O2, H3): 150.01
  a(O1, O2, N2): 145.32
  a(O2, N2, C4): 161.66
  a(O2, N2, C4) 2: 114.03
  a(O2, N2, CA2): 155.25
[3]
  Pharmacophore torsion angle a(C3, CA1, O1, H4): 30.10
  Pharmacophore torsion angle a(H4, O1, O2, H3): 55.62
  Pharmacophore torsion angle a(H4, O1, O2, N2): 136.65
  Pharmacophore torsion angle a(N1, CA1, O1, H4): 20.31
  Pharmacophore torsion angle a(O1, H4, O2, CA1): −88.07
[4]
  Pharmacophore torsion angle a(O1, O2, N2, CA2): 126.19

## Cc1nc(N)ccc1CNC(=O)[C@H](C)NC(=O)[C@H]1C[C@H](Cc2ccccc2Br)CN1 [compound 1372, (2R,4S)—N—((S)-1-(((6-Amino-2-methylpyridin-3-yl)methyl)amino)-1-oxopropan-2-yl)-4-(2-bromobenzyl)pyrrolidine-2-carboxamide Di-trifluoroacetate salt]
Table A1 (H-Bonds), ASP 627 OD2
  H-bond distance to MASP-2 ASP 627 atom OD2: 3.17
Table A1 (H-Bonds)
  H-bond distance to MASP-2 GLY 656 atom N: 3.23
  H-bond distance to MASP-2 SER 654 atom O: 2.97
  H-bond distance to MASP-2 SER 657 atom O: 2.87
Table A1 (H-Bonds), GLY 656 O
  H-bond distance to MASP-2 GLY 656 atom O: 2.81
Table A1 (H-Bonds), SER 628 O
  H-bond distance to MASP-2 SER 628 atom O: 3.18
Table A2-1
  van der Waals contact distance, MASP-2 HIS 483 atom CD2: 3.77
  van der Waals contact distance, MASP-2 HIS 483 atom NE2: 3.67
Table A2-2
  van der Waals contact distance, MASP-2 GLY 528 atom CA: 3.83
Table A2-4
  van der Waals contact distance, MASP-2 TYR 607 atom CD1: 3.77
Table A2-7: SER 628 (CB, O, OG)
  van der Waals contact distance, MASP-2 amino acid atom to compound atom: 3.68
  van der Waals contact distance, VAL 653 CG1 to compound atom: 3.32
Table A2-12
  van der Waals contact distance, TRP 655 CA to compound atom: 3.48
Table A2-13, MASP-2 TRP 655 CE3, compound atom in line below
  van der Waals contact distance TRP 655 atom CE3: 3.54
Table A2-13, MASP-2 TRP 655 CZ3
  van der Waals contact distance TRP 655 atom CZ3: 3.48

## N=C(N)c1ccc(CNC(=O)[C@@H]2CCN2C(=O)[C@H](NCC(=O)O)C2Cc3ccccc3C2)cc1 [compound 1129]
Table A1 (H-Bonds), ASP 627 OD1
  H-bond distance to MASP-2 ASP 627 atom OD1: 2.79
Table A1 (H-Bonds), GLN 665 OE1
  H-bond distance to MASP-2 GLN 665 atom OE1: 2.76
Table A1 (H-Bonds)
  H-bond distance to MASP-2 GLY 656 atom N: 2.93
  H-bond distance to MASP-2 SER 654 atom O: 2.84
  H-bond distance to MASP-2 SER 657 atom O: 2.92
Table A1 (H-Bonds), SER 628 OG
  H-bond distance to MASP-2 SER 628 atom OG: 2.86
Table A2-1
  van der Waals contact distance, MASP-2 HIS 483 atom CD2: 3.75
Table A2-3
  van der Waals contact distance, MASP-2 PHE 529 atom CE1: 3.52
Table A2-4
  van der Waals contact distance, MASP-2 PRO 606 atom C: 3.86
Table A2-9 second part, ARG 630, AA atoms N, NE, NH1
  van der Waals contact distance, MASP-2 amino acid atom to compound atom: 3.69
  van der Waals contact distance, VAL 653 CG1 to compound atom: 3.9
  Ligand-pharmacophore element distance, pharmacophore element C2: 3.15
  Ligand-pharmacophore element distance, pharmacophore element C3: 0
  Ligand-pharmacophore element distance, pharmacophore element C4: 0
  Ligand-pharmacophore element distance, pharmacophore element C5: 0
  Ligand-pharmacophore element distance, pharmacophore element C6: 0
  Ligand-pharmacophore element distance, pharmacophore element C7: 0
  Ligand-pharmacophore element distance, pharmacophore element CA1: 0.35
  Ligand-pharmacophore element distance, pharmacophore element CA2: 0
  Ligand-pharmacophore element distance, pharmacophore element CA3: 0
  Ligand-pharmacophore element distance, pharmacophore element CA4: 0
  Ligand-pharmacophore element distance, pharmacophore element CA5: 0.67
  Ligand-pharmacophore element distance, pharmacophore element CA6: 0
Table A2-13, MASP-2 GLY 656 C
  van der Waals contact distance GLY 656 atom C: 3.54
Table A4-2, element H1
  Ligand-pharmacophore element distance, pharmacophore element H1: 0
Table A4-2, element H2
  Ligand-pharmacophore element distance, pharmacophore element H2: 0
Table A4-2, element H3
  Ligand-pharmacophore element distance, pharmacophore element H3: 1.34
Table A4-2, element H4
  Ligand-pharmacophore element distance, pharmacophore element H4: 3.79
Table A4-2, element N1
  Ligand-pharmacophore element distance, pharmacophore element N1: 1.8
Table A4-2, element N2
  Ligand-pharmacophore element distance, pharmacophore element N2: 1.8
Table A4-2, element O1
  Ligand-pharmacophore element distance, pharmacophore element O1: 0.39
Table A4-2, element O2
  Ligand-pharmacophore element distance, pharmacophore element O2: 0.58
Table A4-2, element O3
  Ligand-pharmacophore element distance, pharmacophore element O3: 0
Table A4-2, element O4
  Ligand-pharmacophore element distance, pharmacophore element O4: 0
[1]
  d(CA1,N1): 3.60
  d(CA1,O1): 4.47
  d(CA1,O2): 4.37
  d(H4,O1): 5.00
  d(H4,O2): 4.63
  d(O1,O2): 3.49
[2]
  d(CA5,N2): 5.54
  d(N2,C2): 2.76
  d(O2,H3): 2.83
  d(O2,N2): 3.19
Table A6-1 pharmacophore angle
  a(CA1, O1, O2): 111.77
  a(O1, O2, H4): 137.67
Table A6-1 pharmacophore angle, all compounds with protonatable center N1 except Methyl-amino-pyridine
  A(N1, CA1, O1) a): 164.78
Table A6-2 pharmacophore angle
  a(O1, O2, H3): 122.63
  a(O1, O2, N2): 127.76
  a(O2, N2, C2): 110.31
[3]
  Pharmacophore torsion angle a(H4, O1, O2, H3): 104.70
  Pharmacophore torsion angle a(H4, O1, O2, N2): 133.45
  Pharmacophore torsion angle a(N1, CA1, O2, H4): −139.56
  Pharmacophore torsion angle a(O1, H4, O2, CA1): −65.27
  Pharmacophore torsion angle a(O1, O2, N2, C2): 95.54
[4]
  Pharmacophore torsion angle a(O1, O2, N2, CA5): 145.95
Table A8-6, 6th residue column, nearest protein atom in cell to the left
  Pharmacophore protein distance to MET_658 (first MET_658 column): 2.85
Table A8-6, 9th residue column, nearest protein atom in cell to the left
  Pharmacophore protein distance to MET_658 (second MET_658 column): 3.11
[5]
  Pharmacophore protein distance to GLY_528: 3.51
  Pharmacophore protein distance to PHE_529: 2.98
  Pharmacophore protein distance to PRO_608: 4.05
  Pharmacophore protein distance to SER_611: 2.58
Table A8-6, pharmacophore elements C6, CA3, O3, H1, nearest protein atom in cell to the left
  Pharmacophore protein distance to TRP_655: 3.31

## Cc1c(/N=C/c2ccc(OC(=O)c3ccco3)cc2)c(=O)n(-c2ccccc2)n1C [compound 34]
Table A2-13, MASP-2 GLY 656 CA
  van der Waals contact distance GLY 656 atom CA: 3.72
